Laboratory results: the METLIN SMRT retention time set (Domingo-Almenara et al. 2019)

Assay: gradient 5% acetonitrile 3 min, to 50% in 2 min, to 85% in 15 min, held 3 min, 100 µL/min
Conditions: column: Zorbax Extend-C18 2.1 x 50 mm; eluents: water / acetonitrile, 0.1% formic acid
Method in brief: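 Data were gathered over 3 months by HPLC coupled to a quadrupole time-of-flight mass spectrometer, operated in positive and negative ionization mode. Mixtures of ~100 pure standards ran on a Zorbax Extend-C18 column (2.1 × 50 mm, 1.8 μm) at 100 μL/min, with water and acetonitrile each containing 0.1% formic acid and dead and dwell volumes of 40 μL and 900 μL. Retention time was read from adduct peaks picked by computer and checked manually.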

RP-LC retention time [s] | Compound
898 | CSc1ccc(-c2nc3ncccn3c2Nc2ccc(C)cc2C)cc1
791 | CN1C(=O)c2cc(C(=O)NCc3ccccc3)nn2CC1(C)C(=O)NC1CCCCCC1 (stereo not drawn)
1310 | CC(C)CC(=O)Nc1ccc(-c2nc(-c3ccc(Cl)cc3)no2)cc1
920 | Cc1cc(C)cc(NC(=O)Cn2cccc2-c2nnc(C3CCC3)o2)c1
771 | COc1cc(OC)c(NC(=O)COc2nc(C)nc3ccccc23)cc1Cl
788 | Cc1cc(CS(=O)(=O)c2ccccc2)cc(OCc2ccc(CN3CCC[C@@H]3CO)cc2)c1
624 | CCOC(=O)C(C(=O)NCCCN1CCOCC1)C1CCCCC1 (stereo not drawn)
637 | O=C(c1cnccn1)N1CCCCC1c1nncn1Cc1ccccc1 (stereo not drawn)
608 | COc1ccc(S(=O)(=O)c2cnc3cc4c(cc3c2N2CCN(C)CC2)OCCO4)cc1
682 | Cc1ccc2oc(-c3noc(C(=O)NCCN(C)C)n3)c(C)c2c1
641 | COCc1cc(=O)n(CC(=O)Nc2ccc(Cl)cc2)c(N)n1
909 | CCn1ncn2cc(S(=O)(=O)Nc3ccc(C)c(F)c3)cc2c1=O
1020 | O=C(C1CCN(S(=O)(=O)c2ccc(-c3noc(-c4cccc(F)c4)n3)cc2)CC1)N1CCCC1
1020 | Cc1ccc(-c2cc(C(=O)NC3CCCCC3)c(C)[nH]2)cc1C
609 | Cn1c(C(=O)NCc2cccc(F)c2)cc2ccncc21
834 | O=C(NC1CCCC1)N1CCC(OCc2ccccc2)C1 (stereo not drawn)
711 | CCc1ccc(NC(=O)N2CCC(c3nc4cccnc4n3C)C2)cc1 (stereo not drawn)
716 | O=C(Cc1ccc(NC(=O)Nc2ccc3c(c2)OCO3)cc1)NCC(F)(F)F
711 | CCn1c(=O)c(=O)n(CC(=O)NC(C)Cc2ccco2)c2cccnc21 (stereo not drawn)
868 | O=C(Cn1ccn2nc(-c3ccccc3)c(CO)c2c1=O)Nc1cccc(Br)c1
670 | O=C(Cn1nc2nc(N3CCCC3)ccn2c1=O)NCc1ccc(F)c(Cl)c1
682 | COc1ccccc1OCCNC(=O)C1CC(=O)N(c2n[nH]c3ccccc23)C1 (stereo not drawn)
1220 | O=C(Nc1nc(-c2ccc3ccccc3c2)cs1)c1ccc(Cl)cc1Cl

RP-LC retention time [s] | Compound
826 | Cc1ccc(CS(=O)(=O)N2CCC(c3cc(N)on3)CC2)cc1C
606 | COc1nccnc1N1CCC(NC(=O)CCc2c(C)noc2C)C1 (stereo not drawn)
865 | O=C(NC1CCCCCC1)c1cccc(CN2C(=O)C3CCCN3C(=O)c3ccccc32)c1 (stereo not drawn)
675 | COc1ccc(C2C(C(=O)N3CCCCC3)=C(C)NC3=C2C(=O)CC(C)(C)C3)cc1OC (stereo not drawn)
869 | CCC(=O)Nc1cccc(-c2noc(C3CCN(C(=O)CCc4c[nH]c5ccccc45)CC3)n2)c1
784 | COc1ccc(C)cc1NC(=O)C1CCN(C(=O)C(C)(C)C)CC1
907 | CCC(=O)N(CCOC)CC(=O)N1CCc2sccc2C1COc1ccc(Cl)cc1 (stereo not drawn)
1130 | Cc1cccc(N2CCN(c3ccc4nnc(CCc5nc(-c6ccc(F)cc6)no5)n4n3)CC2)c1
906 | Cc1nnc(-c2coc(S(=O)(=O)N(C)C3CCCCC3)c2)o1
797 | Cc1ccc(CN2C(=O)C3CCCN3C(=O)c3ccccc32)cc1 (stereo not drawn)
890 | CCOc1ccc(NC(=O)N(C)CCc2noc(COc3ccccc3)n2)cc1
811 | CCCCOc1ccc(NC(=O)c2cc(=O)c3cc(Br)ccc3o2)c2cccnc12
694 | Cc1noc(-c2cccc(OC3CN(C(=O)C4CCOC4)C3)c2)n1 (stereo not drawn)
1260 | COc1ccc(C(=S)N2CCN(c3ccccc3C)CC2)cc1
651 | O=C(NCCCn1c(-c2ccncc2)nc2cccnc21)Nc1cccc(F)c1
799 | O=C(NCc1ccc(F)cc1)c1cn2cc(Cl)ccc2n1
572 | CCOC(=O)N1CCN(C(=O)c2cn(C)nc2C)CC1
911 | Cc1cc(Cl)ccc1OCC(=O)Nc1ccc2c(c1)Sc1ncccc1C(=O)N2C
705 | CCCC(=O)N1CCc2c(c(-c3nnc(SC)n3CC)nn2C)C1
590 | CS(=O)(=O)N1CCC(C2CCN(Cc3ccccc3C#N)C2)CC1 (stereo not drawn)
749 | CC(C)N1CCN(Cc2ccc(C(=O)NC3CCCCCC3)cc2)C(=O)C1=O
762 | COc1ccc(-c2nnc(Cc3nc(-c4ccc(C)cc4)no3)o2)cc1OC
865 | Cc1cccc(S(=O)(=O)N2CC3CN(C(=O)C4CCCCC4)CC(C2)O3)c1

RP-LC retention time [s] | Compound
903 | COc1ccc(NC(=O)Cn2c(C)cc(-c3nnc(-c4ccco4)o3)c2C)cc1Cl
620 | Cc1nc2cccnc2n1C1CCN(C(=O)Nc2ccc3c(c2)CCC3)C1 (stereo not drawn)
1310 | O=C(NCC1(c2nc(-c3ccccc3)cs2)CCOCC1)c1cccc(-c2noc(C(F)(F)F)n2)c1
834 | O=S(=O)(c1ccc(-c2nnc(C3CCCC3)o2)o1)N1CCOCC1
686 | CCNc1cc(N2CCC(CCC(=O)Nc3ccc(C)cc3C)CC2)ncn1
677 | CCCCS(=O)(=O)N1CCC2(CC1)NCCCN=C2Nc1cccc(F)c1
953 | Cc1ccnc(Nc2nc(-c3cc(C)c(C)cc3C)cs2)c1
1140 | CCOC(=O)c1noc2nc(C)nc(Nc3cccc(CC)c3)c12
717 | CC(C)CNC(=O)/C=C\C(=O)O
855 | CCOc1ccc(NC(=O)NC(C)C(=O)N2CCc3ccccc32)cc1 (stereo not drawn)
691 | CCN1C(=O)CCc2cc(NC(=O)C3CCC3)ccc21
669 | COCCC(=O)N1CCCN(C2=NS(=O)(=O)C(c3ccccc3)=C2C)CC1
735 | CCC(=O)N1CCCn2nc(-c3cccc(F)c3)cc2C1
1140 | Cc1[nH]nc(-c2c(C)sc(C)c2S(=O)(=O)Nc2ccc(F)c(Cl)c2)c1C
905 | O=C1CC(c2ccc3c(c2)OCO3)c2scc(S(=O)(=O)c3ccccc3)c2N1 (stereo not drawn)
752 | Cc1nn(C2CCS(=O)(=O)C2)c(C)c1N1CCN(S(=O)(=O)c2cccs2)CC1 (stereo not drawn)
661 | CC1(C(=O)NC2CCCCCC2)Cn2c(cc3occc32)C(=O)N1Cc1cccnc1 (stereo not drawn)
779 | Cc1nnc2ccc(N3CCC(C(=O)NC(C)CCc4ccccc4)CC3)nn12 (stereo not drawn)
965 | Cc1ccc(Nc2nc(-c3ccc(C)cc3C)cs2)nc1
919 | COc1cccc(Oc2nccn3c(=O)n(CC(=O)Nc4cccc(C(F)(F)F)c4)nc23)c1
947 | Cc1cc(C)n(-c2nc(CC(=O)N3CCN(c4ccccc4)CC3)cs2)n1
623 | Cc1cc(N2CCN(C(=O)Cc3ccccc3Br)CC2)nc2nnc(C)n12
